Our source for the IC50 values is US20070004660A1, “Synergistic Modulation of Flt3 Kinase Using Alkylquinolines and Alkylquinazolines” (priority 2005, published 2007).

One may read the pIC50 as the negative decadic logarithm of the IC50, by convention in mol/L. High values mean a small IC50, low ones a large IC50.

pIC50: −log10 of the molar value.

The assay concerns the target T1, isolated kinase domain of the human FLT3 receptor (a.a. 571-993) (Homo sapiens, UniProt P36888).
T1 construct: human FLT3 receptor (a.a. 571-993)
T1 sequence (P36888 571-993): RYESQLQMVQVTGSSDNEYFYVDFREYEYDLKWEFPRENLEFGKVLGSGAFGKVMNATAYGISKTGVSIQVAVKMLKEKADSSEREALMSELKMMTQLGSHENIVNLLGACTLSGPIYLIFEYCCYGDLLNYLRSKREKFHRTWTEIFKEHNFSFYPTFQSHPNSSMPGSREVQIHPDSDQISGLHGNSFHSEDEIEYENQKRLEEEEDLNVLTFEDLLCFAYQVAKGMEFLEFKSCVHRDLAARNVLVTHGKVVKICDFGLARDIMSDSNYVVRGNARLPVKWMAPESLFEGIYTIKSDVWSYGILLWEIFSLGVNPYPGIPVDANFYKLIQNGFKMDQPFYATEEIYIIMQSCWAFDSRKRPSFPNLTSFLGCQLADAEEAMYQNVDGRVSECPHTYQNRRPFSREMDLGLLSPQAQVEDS
As to the kind of experiment: FLT3 fluorescence polarization kinase assay. In kind it is biochemical. The following applies: 150 uM ATP; uncertainty ±10%. For orientation: In fluorescence polarisation assays a small probe gives low polarisation when free and higher when bound to something large.
`CCN1CCN(c2ccc3c(C4CCN(C(=O)Nc5ccc(N6CCCC6)cc5)CC4)ncnc3c2)CC1` [Compound 187, 4-[7-(4-Ethyl-piperazin-1-yl)-quinazolin-4-yl]-piperidine-1-carboxylic acid (4-pyrrolidin-1-yl-phenyl)-amide] showed a pIC50 of 6.84.

In turn, `CN(C)[C@@H]1CCN(c2ccc3c(C4CCN(C(=O)Nc5ccc(N6CCCC6)cc5)CC4)ncnc3c2)C1` [Example 149, (R)-4-[7-(3-Dimethylamino-pyrrolidin-1-yl)-quinazolin-4-yl]-piperidine-1-carboxylic acid (4-pyrrolidin-1-yl-phenyl)-amide] gave a pIC50 of 7.34.

`CN1CCN(CCCOc2ccc3c(C4CCN(C(=O)Nc5ccc(N6CCCC6)cc5)CC4)ncnc3c2)CC1` [Example 158, 4-{7-[3-(4-Methyl-piperazin-1-yl)-propoxy]-quinazolin-4-yl}-piperidine-1-carboxylic acid (4-pyrrolidin-1-yl-phenyl)-amide] showed a pIC50 of 8.10.

Regarding `O=C(Nc1ccc(N2CCCC2)cc1)N1CCC(c2ncnc3cc(N4CCC(F)CC4)ccc23)CC1` [Compound 195, 4-[7-(4-Fluoro-piperidin-1-yl)-quinazolin-4-yl]-piperidine-1-carboxylic acid (4-pyrrolidin-1-yl-phenyl)-amide], the pIC50 was 6.79.

For `COCCN1CCN(c2ccc3c(C4CCN(C(=O)Nc5ccc(N6CCCC6)cc5)CC4)ncnc3c2)CC1` [Compound 186, 4-{7-[4-(2-Methoxy-ethyl)-piperazin-1-yl]-quinazolin-4-yl}-piperidine-1-carboxylic acid (4-pyrrolidin-1-yl-phenyl)-amide], the pIC50 was 7.03.

In turn, `CC(C)c1ccc(NC(=O)CN2CCC(c3ncnc4ccccc34)CC2)cc1` [Example 16, N-(4-Isopropyl-phenyl)-2-(4-quinazolin-4-yl-piperidin-1-yl)-acetamide] gave a negative logarithm of the IC50 (pIC50) of 7.25. This pIC50 is 0.22 log units higher than that of the compound before.

In turn, `COc1cc2ncnc(C3CCN(C(=O)Nc4ccc(N5CCCCC5)cc4)CC3)c2cc1OC` [Example 19, 4-(6,7-Dimethoxy-quinazolin-4-yl)-piperidine-1-carboxylic acid (4-piperidin-1-yl-phenyl)-amide] showed a pIC50 of 7.77.

In the case of `O=C(Nc1ccc(N2CCCC2)cc1)N1CCC(c2ncnc3cc(N4CCCC4)ccc23)CC1` [Compound 179, 4-(7-Pyrrolidin-1-yl-quinazolin-4-yl)-piperidine-1-carboxylic acid (4-pyrrolidin-1-yl-phenyl)-amide], the pIC50 was 7.77.

`O=C(Nc1ccc(N2CCOCC2)cc1)N1CCC(c2ncnc3cc(N4CCC[C@H]4CO)ccc23)CC1` [Example 139, (S)-4-[7-(2-Hydroxymethyl-pyrrolidin-1-yl)-quinazolin-4-yl]-piperidine-1-carboxylic acid (4-morpholin-4-yl-phenyl)-amide] had a pIC50 of 7.48.

In turn, `CCNC(=O)N1CCN(c2ccc3c(C4CCN(C(=O)Nc5ccc(N6CCCC6)cc5)CC4)ncnc3c2)CC1` [Compound 199, 4-{4-[1-(4-Pyrrolidin-1-yl-phenylcarbamoyl)-piperidin-4-yl]-quinazolin-7-yl}-piperazine-1-carboxylic acid ethylamide] showed a pIC50 of 7.55.

Regarding `O=C(Nc1ccc(N2CCOCC2)cc1)N1CCC(c2ncnc3cc(N4CCNC4=O)ccc23)CC1` [Compound 197, 4-[7-(2-Oxo-imidazolidin-1-yl)-quinazolin-4-yl]-piperidine-1-carboxylic acid (4-morpholin-4-yl-phenyl)-amide], the pIC50 was 5.98. This pIC50 lies 1.57 log units lower than the previous one.

As for `CCN(CC)CCCOc1ccc2c(C3CCN(C(=O)Nc4ccc(N5CCOCC5)cc4)CC3)ncnc2c1` [Example 134, 4-[7-(3-Diethylamino-propoxy)-quinazolin-4-yl]-piperidine-1-carboxylic acid (4-morpholin-4-yl-phenyl)-amide], the pIC50 was 8.70. Compared with the last compound, the pIC50 is 2.72 log units higher.

Compound `O=C(Nc1ccc(N2CCOCC2)cc1)N1CCC(c2ncnc3cc(N4CCC(F)CC4)ccc23)CC1` [Compound 196, 4-[7-(4-Fluoro-piperidin-1-yl)-quinazolin-4-yl]-piperidine-1-carboxylic acid (4-morpholin-4-yl-phenyl)-amide] had a pIC50 of 6.54.

For `O=C(Nc1ccc(N2CCCC2)cc1)N1CCC(c2ncnc3cc(Oc4cccnc4)ccc23)CC1` [Example 174, 4-[7-(Pyridin-3-yloxy)-quinazolin-4-yl]-piperidine-1-carboxylic acid (4-pyrrolidin-1-yl-phenyl)-amide], the pIC50 is 7.38. Against the preceding compound, the pIC50 is 0.84 log units higher.

`O=C(Nc1ccc(N2CCCC2)cc1)N1CCC(c2ncnc3cc(N4CCSCC4)ccc23)CC1` [Compound 182, 4-(7-Thiomorpholin-4-yl-quinazolin-4-yl)-piperidine-1-carboxylic acid (4-pyrrolidin-1-yl-phenyl)-amide] had a pIC50 of 7.96.

Regarding `CN1CCCN(c2ccc3c(C4CCN(C(=O)Nc5ccc(N6CCOCC6)cc5)CC4)ncnc3c2)CC1` [Example 138, 4-[7-(4-Methyl-[1,4]diazepan-1-yl)-quinazolin-4-yl]-piperidine-1-carboxylic acid (4-morpholin-4-yl-phenyl)-amide], the pIC50 was 7.55.

For the compound `O=C(Nc1ccc(N2CCCC2)cc1)N1CCC(c2ncnc3cc(N4CCN(CCO)CC4)ccc23)CC1` [Compound 185, 4-{7-[4-(2-Hydroxy-ethyl)-piperazin-1-yl]-quinazolin-4-yl}-piperidine-1-carboxylic acid (4-pyrrolidin-1-yl-phenyl)-amide], the negative logarithm of the IC50 (pIC50) is 7.26.

With `CNC(=O)C1CCN(c2ccc3c(C4CCN(C(=O)Nc5ccc(N6CCCC6)cc5)CC4)ncnc3c2)CC1` [Example 155, 4-[7-(4-Carboxylic acid methylamide-piperidin-1-yl)-quinazolin-4-yl]-piperidine-1-carboxylic acid (4-pyrrolidin-1-yl-phenyl)-amide], the pIC50 is 8.10.

Turning to `CN1CCN(CCOc2ccc3c(C4CCN(C(=O)Nc5ccc(N6CCOCC6)cc5)CC4)ncnc3c2)CC1` [Example 156, 4-{7-[2-(4-Methyl-piperazin-1-yl)-ethoxy]-quinazolin-4-yl}-piperidine-1-carboxylic acid (4-morpholin-4-yl-phenyl)-amide], the pIC50 is 8.22.

`CN1CCN(c2ccc3c(C4CCN(C(=O)Nc5ccc(N6CCCC6)cc5)CC4)ncnc3c2)CC1` [Example 159, 4-[7-(4-Methyl-piperazin-1-yl)-quinazolin-4-yl]-piperidine-1-carboxylic acid (4-pyrrolidin-1-yl-phenyl)-amide] gave a pIC50 of 8.15.

As for `O=C(Nc1ccc(N2CCCC2)cc1)N1CCC(c2ncnc3cc(-n4ccnc4)ccc23)CC1` [Compound 180, 4-(7-Imidazol-1-yl-quinazolin-4-yl)-piperidine-1-carboxylic acid (4-pyrrolidin-1-yl-phenyl)-amide], the pIC50 is 8.22.

`O=C(Nc1ccc(N2CCOCC2)cc1)N1CCC(c2ncnc3cc(N4CCNCC4)ccc23)CC1` [Example 140, 4-(7-Piperazin-1-yl-quinazolin-4-yl)-piperidine-1-carboxylic acid (4-morpholin-4-yl-phenyl)-amide] gave a pIC50 of 7.35.
